Measured values as given in ChEMBL document CHEMBL4325884, “Investigation of the molecular characteristics of bisindole inhibitors as HIV-1 glycoprotein-41 fusion inhibitors” (Eur J Med Chem, 2019).

Key:
[1] = Cytotoxicity against human PBMC by MTS or resazurin dye based assay; assay type: cell-based
[2] = system: Human immunodeficiency virus 1; assay: Antiviral activity against HIV-1 Bal infected in human MAGI-CCR5 cells assessed as reduction in viral infection after 48 hrs by fluorescence based beta-galactosidase reporter gene assay; assay type: functional, organism-based; details: Human immunodeficiency virus 1, Bal, MAGI-CCR5, 48 h
[3] = system: Human immunodeficiency virus 1; assay: Antiviral activity against HIV-1 3B infected in human MAGI-CXCR4 cells assessed as reduction in viral infection after 48 hrs by fluorescence based beta-galactosidase reporter gene assay; assay type: functional, organism-based; details: Human immunodeficiency virus 1, 3B
[4] = target: Envelope glycoprotein gp160 (Human immunodeficiency virus 1, UniProt Q6QLK5); assay: Binding affinity to HIV1 N-terminal 2,2-bipyridine-5-carboxylate-capped Envelope glycoprotein gp41 Fe2(env2.0)3 by C18FL probe based fluorescence quenching assay
[5] = Cytotoxicity against human MAGI cells by MTS or resazurin dye based assay; assay type: cell-based

Sequence of Envelope glycoprotein gp160 (Q6QLK5 whole entry): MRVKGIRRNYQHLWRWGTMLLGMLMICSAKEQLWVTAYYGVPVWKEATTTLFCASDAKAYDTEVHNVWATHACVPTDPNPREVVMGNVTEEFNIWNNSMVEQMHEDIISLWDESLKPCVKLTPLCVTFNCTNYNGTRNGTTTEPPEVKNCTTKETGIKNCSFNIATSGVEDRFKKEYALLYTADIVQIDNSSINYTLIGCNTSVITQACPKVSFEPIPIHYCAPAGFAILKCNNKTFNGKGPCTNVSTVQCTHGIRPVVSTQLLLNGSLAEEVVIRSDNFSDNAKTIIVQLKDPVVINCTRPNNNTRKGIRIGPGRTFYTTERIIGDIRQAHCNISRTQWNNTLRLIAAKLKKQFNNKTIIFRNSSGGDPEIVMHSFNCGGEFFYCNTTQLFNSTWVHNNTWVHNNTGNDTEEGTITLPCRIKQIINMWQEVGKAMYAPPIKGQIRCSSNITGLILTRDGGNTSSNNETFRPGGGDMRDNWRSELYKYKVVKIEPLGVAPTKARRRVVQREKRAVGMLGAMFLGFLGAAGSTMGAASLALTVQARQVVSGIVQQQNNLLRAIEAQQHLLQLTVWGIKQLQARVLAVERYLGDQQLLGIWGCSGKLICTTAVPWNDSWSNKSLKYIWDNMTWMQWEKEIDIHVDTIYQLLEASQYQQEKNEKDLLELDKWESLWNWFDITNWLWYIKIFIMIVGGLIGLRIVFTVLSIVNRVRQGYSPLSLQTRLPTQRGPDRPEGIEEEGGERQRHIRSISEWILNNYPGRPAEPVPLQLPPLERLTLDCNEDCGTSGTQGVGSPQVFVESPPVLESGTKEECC

Row | SMILES | CC50 [1] [µM] | IC50 [2] [µM] | IC50 [3] [µM] | Ki [4] [µM] | CC50 [5] [µM]
1 | COc1cccc(CNc2cccc(-c3ccc4ccn(Cc5cccc(C(=O)O)c5)c4c3)c2)c1 | > 10 | > 20 | > 20 | 1.5 | 
2 | CC(C)(C)OC(=O)n1ccc2ccc(-c3ccc4ccn(Cc5cccc(C(=O)O)c5)c4c3)cc21 | > 20 | 0.9 | 1 | 1.9 | 
3 | Cn1ccc2ccc(-c3ccc4cnn(Cc5cc(F)cc(C(=O)O)c5)c4c3)cc21 | > 20 | > 20 | > 20 | 2.1 | 
4 | CC(C)(C)OC(=O)Nc1cccc(Cn2ccc3ccc(-c4ccc5ccn(Cc6cccc(C(=O)O)c6)c5c4)cc32)c1 | > 20 | 0.4 | 0.5 | 1.5 | 
5 | Cc1ccc(S(=O)(=O)n2ccc3ccc(-c4ccc5ccn(Cc6cccc(C(=O)O)c6)c5c4)cc32)cc1 | > 50 | 0.8 | 0.9 | 1.2 | 
6 | COC(=O)c1cccc(Cn2ccc3ccc(-c4ccc5cnn(Cc6cccc(C(=O)O)c6)c5c4)cc32)c1 | > 20 | 3.1 | 2.5 | 3.2 | 
7 | CC(C)(C)OC(=O)N1CCC(Cn2ccc3ccc(-c4ccc5ccn(Cc6cccc(C(=O)O)c6)c5c4)cc32)CC1 | > 20 | 0.6 | 0.6 | 1.2 | 
8 | Cn1cc2ccc(-c3ccc4ccn(Cc5cc(F)cc(C(=O)O)c5)c4c3)cc2n1 | > 20 | 14 | > 20 | 6.4 | 
9 | CN(C(=O)OC(C)(C)C)c1cccc(-c2ccc3ccn(Cc4cccc(C(=O)O)c4)c3c2)c1 | > 20 | 15.6 | 11.3 | 1.6 | 
10 | COc1cccc(CN(C(=O)OC(C)(C)C)c2cccc(-c3ccc4ccn(Cc5cccc(C(=O)O)c5)c4c3)c2)c1 | > 10 | 5.5 | 4.2 | 0.45 | 
11 | Nc1ccc(Cn2ccc3ccc(-c4ccc5ccn(Cc6cccc(C(=O)O)c6)c5c4)cc32)cc1 | > 20 | 1.1 | 1.3 | 3.1 | 
12 | COc1cccc(CN(C)c2cccc(-c3ccc4ccn(Cc5cccc(C(=O)O)c5)c4c3)c2)c1 | > 20 | 1.6 | 1.2 | 0.8 | 
13 | O=C(O)c1cccc(Cn2ccc3ccc(-c4ccc5ccn(Cc6cccc(OC(F)(F)F)c6)c5c4)cc32)c1 | > 20 | 1.4 | 1.5 | 2.3 | 
14 | COc1cc(Cn2ccc3ccc(-c4ccc5ccn(Cc6cccc(C(=O)O)c6)c5c4)cc32)cc(C(=O)O)c1 | > 20 | > 20 | > 20 | 0.8 | 
15 | CC(C)(C)OC(=O)N1CCc2ccc(-c3ccc4ccn(Cc5cccc(C(=O)O)c5)c4c3)cc21 | > 25 | 2.3 | 2.8 | 0.9 | 
16 | CC(C)(C)OC(=O)c1cccc(Cn2ccc3ccc(-c4ccc5ccn(Cc6cccc(C(=O)O)c6)c5c4)cc32)c1 | > 10 | 0.2 | 0.2 | 0.3 | 
17 | Cn1ccc2cc(F)c(-c3ccc4ccn(Cc5cc(F)cc(C(=O)O)c5)c4c3)cc21 | > 20 | 9.7 | 7.8 | 2 | 

Row | SMILES | CC50 [1] [µM] | IC50 [2] [µM] | IC50 [3] [µM] | Ki [4] [µM] | CC50 [5] [µM]
18 | Cn1ccc2ccc(-c3ccc4c(c3)N(Cc3cccc(C(=O)O)c3)CC4)cc21 | > 50 | > 25 | > 25 | 10 | 
19 | COC(=O)c1cc(Cn2ccc3ccc(-c4ccc5ccn(Cc6cccc(C(=O)O)c6)c5c4)cc32)cc(C(=O)OC)c1 | > 20 | 0.6 | 0.6 | 1 | 
20 | COC(=O)c1cccc(Cn2ncc3ccc(-c4ccc5ccn(Cc6cccc(C(=O)O)c6)c5c4)cc32)c1 | > 50 | 1.4 | 1.4 | 1 | 
21 | COc1cccc(CN2CCc3ccc(-c4ccc5ccn(Cc6cccc(C(=O)O)c6)c5c4)cc32)c1 | > 25 | 1.9 | 2.4 | 3.6 | 
22 | COC(=O)c1cccc(Cn2ccc3cc(F)c(-c4ccc5ccn(Cc6cccc(C(=O)O)c6)c5c4)cc32)c1 | > 20 | 0.5 | 0.4 | 0.7 | 
23 | COC(=O)c1ccc(Cn2ccc3ccc(-c4ccc5ccn(Cc6cccc(C(=O)O)c6)c5c4)cc32)c(OC)c1 | 25 | 4.2 | 3.1 | 0.4 | 25
24 | Cn1ncc2ccc(-c3ccc4cnn(Cc5ccc(F)c(C(=O)O)c5)c4c3)cc21 | 200 | > 20 | > 20 | 19 | 200
25 | COc1cccc(Cn2ccc3ccc(-c4ccc5c(C)cn(Cc6cccc(C(=O)O)c6)c5c4)cc32)c1 | 70 | 10.5 | 12.9 | 1.2 | 70
26 | COC(=O)c1cc(F)cc(Cn2ccc3ccc(-c4ccc5ccn(Cc6cccc(C(=O)O)c6)c5c4)cc32)c1 | > 20 | 0.4 | 0.5 | 1 | 
27 | Cn1ncc2ccc(-c3ccc4ccn(Cc5cc(F)cc(C(=O)O)c5)c4c3)cc21 | > 20 | 10.1 | 11.3 | 2.5 | 
28 | O=C(O)c1cccc(Cn2ccc3ccc(-c4ccc5ccn(Cc6cccc([N+](=O)[O-])c6)c5c4)cc32)c1 | > 20 | 2.8 | 3.4 | 2.7 | 
29 | Cn1ccc2ccc(-c3ccc4ccn(Cc5cc(F)cc(C(=O)O)c5)c4c3)cc21 | > 20 | 8.2 | 9.1 | 3 | 
30 | CC(=O)Nc1cccc(Cn2ccc3ccc(-c4ccc5ccn(Cc6cccc(C(=O)O)c6)c5c4)cc32)c1 | > 20 | 4.7 | 4.5 | 0.9 | 
31 | COc1cccc(Cn2ccc3ccc(-c4ccc5cn(Cc6cccc(C(=O)O)c6)nc5c4)cc32)c1 | > 20 | 5.8 | 5.5 | 1 | 
32 | COc1cccc(Cn2ccc3cc(F)c(-c4ccc5ccn(Cc6cccc(C(=O)O)c6)c5c4)cc32)c1 | > 20 | 9.4 | 7 | 5 | 
33 | Cc1cn(C(=O)OC(C)(C)C)c2cc(-c3ccc4ccn(Cc5cccc(C(=O)O)c5)c4c3)ccc12 | > 20 | 1.2 | 1.7 | 4.7 | 
